# Experimental data taken from ChEMBL document CHEMBL1155511, “Discovery of a new potent bisamide FMS kinase inhibitor” (Bioorg Med Chem Lett, 2010).
# Legend:
# [1] = target: Aurora kinase A (Homo sapiens) (UniProt O14965); test: Inhibition of Aurora A at 1 uM
# [2] = target: Rho-associated protein kinase 1 (Homo sapiens) (UniProt Q13464); test: Inhibition of ROCK1 at 1 uM
# [3] = target: Protein kinase C alpha type (Homo sapiens) (UniProt P17252); test: Inhibition of PKCalpha at 1 uM
# [4] = target: Serine/threonine-protein kinase PLK1 (Homo sapiens) (UniProt P53350); test: Inhibition of PLK1 at 1 uM
# [5] = target: Ephrin type-A receptor 1 (Homo sapiens) (UniProt P21709); test: Inhibition of EPHA1 at 1 uM
# [6] = target: Homeodomain-interacting protein kinase 2 (Homo sapiens) (UniProt Q9H2X6); test: Inhibition of HIPK2 at 1 uM
# [7] = target: Tyrosine-protein kinase BTK (Homo sapiens) (UniProt Q06187); test: Inhibition of BTK at 1 uM
# Chain of Tyrosine-protein kinase BTK (Homo sapiens) (Q06187 whole entry): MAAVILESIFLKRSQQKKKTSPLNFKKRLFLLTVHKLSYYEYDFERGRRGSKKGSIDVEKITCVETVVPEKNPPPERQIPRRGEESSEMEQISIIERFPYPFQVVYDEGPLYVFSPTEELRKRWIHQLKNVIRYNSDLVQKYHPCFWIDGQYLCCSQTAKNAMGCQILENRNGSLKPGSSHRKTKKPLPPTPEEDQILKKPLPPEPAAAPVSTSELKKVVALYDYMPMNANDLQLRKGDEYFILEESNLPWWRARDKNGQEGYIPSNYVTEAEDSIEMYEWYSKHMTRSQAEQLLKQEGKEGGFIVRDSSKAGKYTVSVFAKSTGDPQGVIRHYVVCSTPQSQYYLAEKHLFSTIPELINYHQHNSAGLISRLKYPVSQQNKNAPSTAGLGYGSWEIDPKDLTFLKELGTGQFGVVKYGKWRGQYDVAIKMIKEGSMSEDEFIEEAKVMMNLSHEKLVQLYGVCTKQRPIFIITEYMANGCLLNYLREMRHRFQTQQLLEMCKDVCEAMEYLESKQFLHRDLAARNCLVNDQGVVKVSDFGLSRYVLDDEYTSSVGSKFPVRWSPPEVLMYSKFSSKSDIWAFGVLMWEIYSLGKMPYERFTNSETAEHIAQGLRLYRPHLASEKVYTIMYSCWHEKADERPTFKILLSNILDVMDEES
# [8] = target: Mitogen-activated protein kinase 14 (Homo sapiens) (UniProt Q16539); test: Inhibition of SAPK2A at 1 uM
# [9] = target: Proto-oncogene tyrosine-protein kinase Src (Homo sapiens) (UniProt P12931); test: Inhibition of c-SRC at 1 uM
# [10] = target: T1, Vascular endothelial growth factor receptor 2 (Homo sapiens, UniProt P35968); test: Inhibition of KDR
# T1 sequence (P35968 whole entry): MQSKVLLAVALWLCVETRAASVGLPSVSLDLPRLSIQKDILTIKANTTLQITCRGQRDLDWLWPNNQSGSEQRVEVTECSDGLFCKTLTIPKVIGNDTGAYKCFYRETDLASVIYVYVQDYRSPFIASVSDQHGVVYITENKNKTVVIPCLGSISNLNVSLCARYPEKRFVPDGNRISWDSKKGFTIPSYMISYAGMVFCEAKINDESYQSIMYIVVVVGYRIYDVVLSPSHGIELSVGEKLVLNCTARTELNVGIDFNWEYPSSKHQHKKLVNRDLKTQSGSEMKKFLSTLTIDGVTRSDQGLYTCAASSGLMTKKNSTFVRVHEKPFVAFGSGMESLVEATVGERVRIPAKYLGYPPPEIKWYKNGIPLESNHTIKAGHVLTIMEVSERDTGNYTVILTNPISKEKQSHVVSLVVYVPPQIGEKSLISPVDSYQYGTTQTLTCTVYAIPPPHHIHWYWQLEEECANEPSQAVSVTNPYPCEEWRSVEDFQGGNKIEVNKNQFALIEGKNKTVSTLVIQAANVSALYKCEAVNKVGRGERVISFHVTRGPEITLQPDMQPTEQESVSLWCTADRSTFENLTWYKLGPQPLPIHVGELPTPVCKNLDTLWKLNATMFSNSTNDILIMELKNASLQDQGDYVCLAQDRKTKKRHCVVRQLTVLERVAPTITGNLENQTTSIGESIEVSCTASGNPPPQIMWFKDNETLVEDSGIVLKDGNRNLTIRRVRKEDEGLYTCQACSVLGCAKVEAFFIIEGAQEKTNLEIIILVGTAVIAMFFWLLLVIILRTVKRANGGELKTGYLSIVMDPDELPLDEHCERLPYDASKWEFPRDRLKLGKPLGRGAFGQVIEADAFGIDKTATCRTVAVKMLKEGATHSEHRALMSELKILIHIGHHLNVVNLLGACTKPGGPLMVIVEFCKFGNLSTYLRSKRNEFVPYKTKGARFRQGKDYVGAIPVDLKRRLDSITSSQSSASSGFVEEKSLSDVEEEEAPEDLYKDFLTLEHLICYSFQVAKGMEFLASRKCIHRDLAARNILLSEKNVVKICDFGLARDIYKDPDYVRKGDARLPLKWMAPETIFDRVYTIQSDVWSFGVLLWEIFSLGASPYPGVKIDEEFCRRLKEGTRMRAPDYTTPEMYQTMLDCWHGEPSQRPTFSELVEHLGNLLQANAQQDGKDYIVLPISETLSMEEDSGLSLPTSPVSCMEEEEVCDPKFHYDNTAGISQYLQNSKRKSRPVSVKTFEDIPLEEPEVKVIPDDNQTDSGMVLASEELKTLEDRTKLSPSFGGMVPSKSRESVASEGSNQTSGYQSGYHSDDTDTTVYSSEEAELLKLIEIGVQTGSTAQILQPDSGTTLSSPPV
# [11] = target: T2, Macrophage colony-stimulating factor 1 receptor (Homo sapiens, UniProt P07333); test: Inhibition of FMS
# T2 sequence (P07333 whole entry, looked up): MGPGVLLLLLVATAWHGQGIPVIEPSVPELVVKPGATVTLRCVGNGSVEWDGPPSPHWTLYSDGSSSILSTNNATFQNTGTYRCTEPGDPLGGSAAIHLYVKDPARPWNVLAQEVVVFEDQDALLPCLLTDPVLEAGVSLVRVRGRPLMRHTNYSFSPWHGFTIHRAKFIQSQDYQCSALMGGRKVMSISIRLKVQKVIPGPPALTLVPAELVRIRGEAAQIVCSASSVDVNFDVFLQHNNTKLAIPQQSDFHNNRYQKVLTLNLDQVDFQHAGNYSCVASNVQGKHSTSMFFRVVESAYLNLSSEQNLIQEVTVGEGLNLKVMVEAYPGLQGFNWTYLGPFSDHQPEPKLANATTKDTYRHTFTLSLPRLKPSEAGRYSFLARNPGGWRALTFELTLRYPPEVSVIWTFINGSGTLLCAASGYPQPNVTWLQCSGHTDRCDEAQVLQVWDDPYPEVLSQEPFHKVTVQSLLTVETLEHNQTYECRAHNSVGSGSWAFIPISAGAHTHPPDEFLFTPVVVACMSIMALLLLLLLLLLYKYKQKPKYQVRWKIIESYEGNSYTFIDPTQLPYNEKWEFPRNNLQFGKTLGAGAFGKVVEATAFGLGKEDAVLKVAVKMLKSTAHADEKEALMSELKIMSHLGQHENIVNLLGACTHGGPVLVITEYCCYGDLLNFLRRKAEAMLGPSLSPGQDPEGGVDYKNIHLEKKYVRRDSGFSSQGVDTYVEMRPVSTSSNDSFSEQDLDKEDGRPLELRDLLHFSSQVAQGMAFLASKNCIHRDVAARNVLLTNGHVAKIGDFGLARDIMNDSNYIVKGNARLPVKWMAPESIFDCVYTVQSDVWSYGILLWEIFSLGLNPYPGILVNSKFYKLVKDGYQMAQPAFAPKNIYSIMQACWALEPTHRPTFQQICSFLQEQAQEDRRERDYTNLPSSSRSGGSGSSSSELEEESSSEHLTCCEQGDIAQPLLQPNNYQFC
# [12] = target: Proto-oncogene tyrosine-protein kinase ROS (Homo sapiens) (UniProt P08922); test: Inhibition of ROS1 at 1 uM
# [13] = target: Serine/threonine-protein kinase pim-1 (Homo sapiens) (UniProt P11309); test: Inhibition of PIM1 at 1 uM
# Chain of Serine/threonine-protein kinase pim-1 (Homo sapiens) (P11309 whole entry, looked up): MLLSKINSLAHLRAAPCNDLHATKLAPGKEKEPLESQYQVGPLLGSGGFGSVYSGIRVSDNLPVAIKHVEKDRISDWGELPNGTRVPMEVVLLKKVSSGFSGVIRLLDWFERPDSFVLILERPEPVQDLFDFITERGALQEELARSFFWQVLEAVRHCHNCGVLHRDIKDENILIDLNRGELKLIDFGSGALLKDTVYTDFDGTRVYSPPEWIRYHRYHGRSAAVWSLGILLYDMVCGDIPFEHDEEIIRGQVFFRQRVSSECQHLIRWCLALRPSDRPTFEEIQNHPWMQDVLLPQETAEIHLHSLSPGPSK
# [14] = target: Mitogen-activated protein kinase 8 (Homo sapiens) (UniProt P45983); test: Inhibition of JNK1alpha1 at 1 uM
# [15] = target: Serine/threonine-protein kinase mTOR (Homo sapiens) (UniProt P42345); test: Inhibition of mTOR at 1 uM
# [16] = target: Serine/threonine-protein kinase PAK 2 (Homo sapiens) (UniProt Q13177); test: Inhibition of PAK2 at 1 uM
# [17] = target: Fibroblast growth factor receptor 1 (Homo sapiens) (UniProt P11362); test: Inhibition of FGFR1 at 1 uM
# [18] = target: Glycogen synthase kinase-3 beta (Homo sapiens) (UniProt P49841); test: Inhibition of GSK3-beta at 1 uM
# [19] = target: T1, Vascular endothelial growth factor receptor 2; test: Inhibition of KDR at 1 uM
# [20] = target: Ribosomal protein S6 kinase alpha-1 (Homo sapiens) (UniProt Q15418); test: Inhibition of RSK1 at 1 uM
# [21] = target: Serine/threonine-protein kinase Chk1 (Homo sapiens) (UniProt O14757); test: Inhibition of CHK1 at 1 uM
# [22] = target: Tyrosine-protein kinase Lck (Homo sapiens) (UniProt P06239); test: Inhibition of LCK at 1 uM
# [23] = target: Serine/threonine-protein kinase MARK1 (Homo sapiens) (UniProt Q9P0L2); test: Inhibition of MARK1 at 1 uM
# [24] = target: Protein-tyrosine kinase 2-beta (Homo sapiens) (UniProt Q14289); test: Inhibition of PYK2 at 1 uM
# [25] = target: Tyrosine-protein kinase ABL1 (Homo sapiens) (UniProt P00519); test: Inhibition of ABL1 at 1 uM
# [26] = target: Tyrosine-protein kinase Tec (Homo sapiens) (UniProt P42680); test: Inhibition of TEC at 1 uM
# [27] = target: Tyrosine-protein kinase SYK (Homo sapiens) (UniProt P43405); test: Inhibition of SYK at 1 uM
# [28] = target: Cyclin-dependent kinase 5/CDK5 activator 1 (Homo sapiens) (UniProt Q00535+Q15078); test: Inhibition of CDK5/p25 at 1 uM; format: protein-complex assay
# [29] = target: Mitogen-activated protein kinase kinase kinase 9 (Homo sapiens) (UniProt P80192); test: Inhibition of MLK1 at 1 uM
# [30] = target: Ribosomal protein S6 kinase beta-1 (Homo sapiens) (UniProt P23443); test: Inhibition of p70S6K at 1 uM
# [31] = target: Tyrosine-protein kinase Fyn (Homo sapiens) (UniProt P06241); test: Inhibition of FYN at 1 uM
# Chain of Tyrosine-protein kinase Fyn (Homo sapiens) (P06241 2-537 limits assumed): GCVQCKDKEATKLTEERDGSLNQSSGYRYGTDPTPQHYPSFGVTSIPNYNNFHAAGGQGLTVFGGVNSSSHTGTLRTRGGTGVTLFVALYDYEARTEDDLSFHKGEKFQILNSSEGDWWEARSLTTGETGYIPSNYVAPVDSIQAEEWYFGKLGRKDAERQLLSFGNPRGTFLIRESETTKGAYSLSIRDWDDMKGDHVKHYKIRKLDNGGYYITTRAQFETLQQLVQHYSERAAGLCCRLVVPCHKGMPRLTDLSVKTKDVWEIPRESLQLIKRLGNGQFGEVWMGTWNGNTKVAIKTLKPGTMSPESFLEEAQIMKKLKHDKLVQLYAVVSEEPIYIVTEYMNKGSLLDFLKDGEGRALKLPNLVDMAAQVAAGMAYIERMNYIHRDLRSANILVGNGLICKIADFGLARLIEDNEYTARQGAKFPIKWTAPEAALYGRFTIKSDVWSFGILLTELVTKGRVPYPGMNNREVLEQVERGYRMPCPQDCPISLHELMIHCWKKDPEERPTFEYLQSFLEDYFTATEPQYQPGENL
# [32] = target: Epidermal growth factor receptor (Homo sapiens) (UniProt P00533); test: Inhibition of EGFR at 1 uM
# [33] = Inhibition of PKBalpha; conditions: concentration not given here
# [34] = target: Inhibitor of nuclear factor kappa-B kinase subunit beta (Homo sapiens) (UniProt O14920); test: Inhibition of IKK-beta at 1 uM
# Chain of Inhibitor of nuclear factor kappa-B kinase subunit beta (Homo sapiens) (O14920 whole entry): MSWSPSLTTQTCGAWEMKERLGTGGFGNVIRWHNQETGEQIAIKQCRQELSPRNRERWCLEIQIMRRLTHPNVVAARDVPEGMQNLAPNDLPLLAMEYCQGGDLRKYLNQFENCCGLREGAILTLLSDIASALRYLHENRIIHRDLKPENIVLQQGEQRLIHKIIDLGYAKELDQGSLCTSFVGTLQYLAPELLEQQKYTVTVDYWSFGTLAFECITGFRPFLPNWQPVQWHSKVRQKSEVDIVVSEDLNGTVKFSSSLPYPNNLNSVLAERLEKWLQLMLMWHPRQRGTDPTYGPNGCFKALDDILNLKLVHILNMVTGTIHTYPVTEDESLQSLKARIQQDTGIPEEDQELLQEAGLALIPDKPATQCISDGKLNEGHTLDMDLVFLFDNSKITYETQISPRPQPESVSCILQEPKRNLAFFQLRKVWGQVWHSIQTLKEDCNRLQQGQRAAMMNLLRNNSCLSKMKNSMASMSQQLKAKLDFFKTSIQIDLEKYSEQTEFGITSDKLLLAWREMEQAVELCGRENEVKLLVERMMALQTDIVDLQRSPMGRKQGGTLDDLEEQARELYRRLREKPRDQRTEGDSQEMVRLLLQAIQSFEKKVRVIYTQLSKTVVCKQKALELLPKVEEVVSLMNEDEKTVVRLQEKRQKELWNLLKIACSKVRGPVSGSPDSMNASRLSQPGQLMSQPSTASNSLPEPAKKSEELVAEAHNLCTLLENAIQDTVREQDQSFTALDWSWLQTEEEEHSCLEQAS
# [35] = Inhibition of PKA at 1 uM
# [36] = target: Mast/stem cell growth factor receptor Kit (Homo sapiens) (UniProt P10721); test: Inhibition of cKIT1 at 1 uM
# [37] = target: Insulin-like growth factor 1 receptor (Homo sapiens) (UniProt P08069); test: Inhibition of IGF1R at 1 uM
# [38] = target: Proto-oncogene tyrosine-protein kinase receptor Ret (Homo sapiens) (UniProt P07949); test: Inhibition of RET at 1 uM
# [39] = target: [Pyruvate dehydrogenase (acetyl-transferring)] kinase isozyme 1, mitochondrial (Homo sapiens) (UniProt Q15118); test: Inhibition of PDK1 at 1 uM
# [40] = target: Receptor-type tyrosine-protein kinase FLT3 (Homo sapiens) (UniProt P36888); test: Inhibition of FLT3 at 1 uM
# [41] = target: Dual specificity mitogen-activated protein kinase kinase 1 (Homo sapiens) (UniProt Q02750); test: Inhibition of MEK1 at 1 uM
# [42] = target: Tyrosine-protein kinase JAK3 (Homo sapiens) (UniProt P52333); test: Inhibition of JAK3 at 1 uM
# [43] = target: Insulin receptor (Homo sapiens) (UniProt P06213); test: Inhibition of IR at 1 uM
# [44] = target: T2, Macrophage colony-stimulating factor 1 receptor; test: Inhibition of FMS at 1 uM
# [45] = target: ALK tyrosine kinase receptor (Homo sapiens) (UniProt Q9UM73); test: Inhibition of ALK at 1 uM
# [46] = target: Calcium/calmodulin-dependent protein kinase type 1 (Homo sapiens) (UniProt Q14012); test: Inhibition of CamK1 at 1 uM
# Chain of Calcium/calmodulin-dependent protein kinase type 1 (Homo sapiens) (Q14012 whole entry, looked up): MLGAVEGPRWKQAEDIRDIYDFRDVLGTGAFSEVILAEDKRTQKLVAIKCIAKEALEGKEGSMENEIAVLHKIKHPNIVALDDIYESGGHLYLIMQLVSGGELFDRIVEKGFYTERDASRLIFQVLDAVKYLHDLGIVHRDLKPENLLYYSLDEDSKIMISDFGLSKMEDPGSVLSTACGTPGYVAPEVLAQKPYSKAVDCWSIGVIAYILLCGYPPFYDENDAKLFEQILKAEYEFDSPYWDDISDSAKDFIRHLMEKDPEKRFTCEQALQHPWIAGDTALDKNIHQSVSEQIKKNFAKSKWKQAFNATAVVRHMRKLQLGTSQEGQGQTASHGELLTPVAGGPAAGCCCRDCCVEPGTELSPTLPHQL
structure (smiles),measurement,setting,value
O=C(Nc1cccc(-n2ccc3c(NC(=O)c4ccccc4)nccc32)c1)c1ccc(N2CCOCC2)c(C(F)(F)F)c1,inhibition,[1],21%
same,inhibition,[2],3%
same,inhibition,[3],-5%
same,inhibition,[4],4%
same,inhibition,[5],9%
same,inhibition,[6],9%
same,inhibition,[7],7%
same,inhibition,[8],25%
same,inhibition,[9],10%
same,IC50,[10],1.06 µM
same,IC50,[11],0.096 µM
same,inhibition,[12],19%
same,inhibition,[13],10%
same,inhibition,[14],-1%
same,inhibition,[15],-10%
same,inhibition,[16],2%
same,inhibition,[17],6%
same,inhibition,[18],4%
same,inhibition,[19],71%
same,inhibition,[20],8%
same,inhibition,[21],-8%
same,inhibition,[22],33%
same,inhibition,[23],-9%
same,inhibition,[24],23%
same,inhibition,[25],41%
same,inhibition,[26],14%
same,inhibition,[27],6%
same,inhibition,[28],8%
same,inhibition,[29],-1%
same,inhibition,[30],7%
same,inhibition,[31],44%
same,inhibition,[32],1%
same,inhibition,[33],18%
same,inhibition,[34],23%
same,inhibition,[35],16%
same,inhibition,[36],-2%
same,inhibition,[37],10%
same,inhibition,[38],57%
same,inhibition,[39],-1%
same,inhibition,[40],16%
same,inhibition,[41],12%
same,inhibition,[42],17%
same,inhibition,[43],2%
same,inhibition,[44],90%
same,inhibition,[45],11%
same,inhibition,[46],-1%
